Laboratory results: patent EP1641803B1, “THIENOPYRIMIDINE DERIVATIVES AS POTASSIUM CHANNEL INHIBITORS” (Xention Limited, priority 2003, dated 2004)

Tests used:
human Kv1.5 = target: T1, human Kv1.5 (Homo sapiens, UniProt P22460); experiment: Kv1.5 Rb+ Efflux Assay; format: cell-based; details: inhibition of 86Rb+ efflux through Kv1.5; cells stably transfected with human Kv1.5; 10 point concentration response curves n=2; normalised to 2.5mM 4 amino-pyridine block
T1 construct: expressed in transfected cells
T1 sequence (P22460 whole entry): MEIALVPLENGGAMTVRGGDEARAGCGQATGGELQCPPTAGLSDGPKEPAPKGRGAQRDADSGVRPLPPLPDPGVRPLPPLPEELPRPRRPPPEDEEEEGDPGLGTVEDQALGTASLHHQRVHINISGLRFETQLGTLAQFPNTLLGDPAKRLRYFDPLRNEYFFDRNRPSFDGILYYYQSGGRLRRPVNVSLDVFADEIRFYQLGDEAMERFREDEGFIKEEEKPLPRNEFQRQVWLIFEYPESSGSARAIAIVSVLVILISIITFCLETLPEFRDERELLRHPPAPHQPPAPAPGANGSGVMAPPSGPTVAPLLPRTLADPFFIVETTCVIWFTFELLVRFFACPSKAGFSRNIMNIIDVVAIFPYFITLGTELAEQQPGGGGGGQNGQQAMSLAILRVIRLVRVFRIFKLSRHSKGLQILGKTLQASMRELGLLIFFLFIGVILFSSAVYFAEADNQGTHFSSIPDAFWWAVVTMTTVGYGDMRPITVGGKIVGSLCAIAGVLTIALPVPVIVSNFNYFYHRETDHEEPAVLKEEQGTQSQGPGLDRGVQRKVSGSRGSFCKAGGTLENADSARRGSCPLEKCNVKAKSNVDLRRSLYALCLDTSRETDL
Experimental: The pore of a potassium channel is permeable to other monovalent cations such as Rb^+ and Tl^+. Analysis of cellular efflux of potassium channel permeable ions enables potassium channel activity to be monitored directly. Cells stably transfected with cDNA for human Kv1.5 (in pEF6::VA-His-TOPO) were grown in Dulbecco's Modified Eagle media (DMEM) alpha supplemented with 10% Fetal Calf Serum (FCS), 20 µl/ml penicillin (5000U/ml) streptomycin (5000µg/ml), 10µl/ml [100x] glutamine, and blasticidin (7.5µg/ml). Cells were dispensed into 96 well cellstar TC plates and allowed to grow until a confluent monolayer was visible. On the morning of the assay run, cold media was aspirated using the TECAN plate washer, and a 50µl media spike containing 2µCi/ml (37kBq/ml) ^86Rb^+ added to each well containing cells using the Shallow-Well Matrix Platemate. Plates were placed in a incubator at 37°C for a minimum of 3 hours. Unloaded ^86Rb^+ in the "hot" media was aspirated and each well washed 4x250µl with Earls Balanced Salt Solution (EBSS) which contained 5mM KCl, 140mM NaCl, 2mM CaCl2, 1mM MgSO4, 10mM HEPES, and 5mM glucose, pH 7.4, 290-300 mOsm. These cells were then pre-incubated with 50µl of EBSS +/- test compounds for 10 minutes at room temperature. After the 10 minute incubation, 50µl of modified EBSS which contained 145mM KCl, 2mM CaCl2, 1mM MgSO4, 10mM HEPES, 5mM glucose, pH 7.4, 290-300 mOsm, was added, and the cells were incubated for a further 10 minutes at room temperature. The high KCl EBSS was used to depolarise cells to a membrane potential that would activate Kv1.5 channels. After the final incubation 80µl/100µl of the reaction from each well was transferred to equivalent wells in a Packard "Optiplate" white 96 well plate and counted in a Packard TopCount liquid scintillation counter by Cerenkov emission. Percentage inhibition ^86Rb^+ efflux through Kv1.5 was calculated by normalisation to 2.5mM 4 amino-pyridine control block of Kv1.5. Alternatively cells were loaded with ^85Rb^+ and quantified by atomic absorption spectroscopy. IC50 determinations were derived from 10 point concentration response curves n=2 using the method described above. Data was fitted as variable slope sigmoidal fit using Graphpad Prism (V3.02) software.

hKv1.5 = hKv1.5 (Homo sapiens, UniProt P22460); experiment: Kv1.5 Autopatch Electrophysiology (whole cell patch-clamp); format: cell-based; details: compound at 1µM, room temperature (22-24°C), held at -80mV, step to 0mV for 1000ms, total charge measured
Chain of hKv1.5 (P22460 whole entry): as above
Experimental: The external bathing solution contained (in mM): 150 NaCl, 10 KCl, […], 3 MgCl2, 1 CaCl2, 10 HEPES, pH 7.4. Patch pipettes were filled with an electrode solution of composition (in mM): 160 KCl, 0.5 MgCl2, 10 HEPES, 1 EGTA, pH 7.4 with KOH.
Compounds were dissolved in DMSO (100 %) and made up in the external bather at a concentration of 1µM. All experiments were conducted at room temperature (22-24°C).
A cell suspension (10 ml), with a density of 100,000 cells/ml, was aliquoted into a 15ml centrifuge tube and transferred to an incubator (37°C, 5% CO2) for approximately one hour before use. Following 60 min incubation, a tube was taken and centrifuged at 1000 rpm for 4 mins at room temperature. 9.5 ml supernatant was thence discarded, leaving a cell pellet at the bottom of the tube. The pellet was then resuspended using 100 µl of cold (4 °C), filtered (0.22 µm), 0.2 % BSA/bather solution (0.02g BSA/10ml bather). The bottom of the tube was manually agitated gently until the solution became cloudy with cells. The 100 µl cell resuspension solution was then stored on the bench at 4 °C (using a Peltier-based temperature control device) until used.
A length of capillary glass (1B150F-4, WPI) was dipped into the cell suspension solution, such that - 3 cm column of fluid was taken up by capillary action. A Ag/AgCl wire was dropped into the non-dipped end of the capillary also. The outside of the solution-filled end of the capillary was then dried and the capillary was loaded into the AutoPatch™. Borosilicate glass patch pipettes (from 1.5mm OD, thin-walled filamented, GC150-TF capillary glass, Harvard) were pulled using a DMZ pipette puller (Zeitz Instruments), and were back-filled using the internal pipette solution, being careful that no bubbles remain at the tip or in the body of the pipette. Patch pipettes typically had resistances of 2.3-3.5 MΩ. Once filled, the pipette tip and a proportion of the shaft (- 15 mm) were dipped into Sigmacote (Sigma). The recording pipette was then loaded into the AutoPatch™.
Automated patch-clamping was initiated by the operator, but thereafter AutoPatch.exe continued the experiment providing that pre-set conditions and criteria were satisfied.
Whole cell patch-clamp recordings were made using the AutoPatch™ rig, which incorporated an EPC9 amplifier (HEKA, Germany) under control of Pulse software (v8.54, HEKA, Germany), a motion controller with 2 translators (Newport, UK), valve controller (VF1) and a c-level suction device all at room temperature (22-24°C). This equipment was completely under the control of AutoPatch.exe and operator intervention was only made when there was a requirement to refill the drug reservoirs or to prevent the loss of a cell due to a technical error. Cells with an Rseries greater than 18 MΩ were discounted from the experiment.
Qualification stages prior to perfusion and drug application ensured that the observed current met the criteria for the experiment. Only those cells with an IK > 500 pA were used for experiments. Cells were continuously perfused with external solution at a flow rate of 1.8-2 ml/minute. […] Online analysis of the hKv1.5 current during the application of compounds was performed by the AutoPatch™ software. Voltage-step protocols and analysis of data was performed as described for conventional electrophysiology.
Electrophysiology voltage-step protocols and analysis of data was performed as follows. Data was sampled at 5kHz, and filtered with a -3 dB bandwidth of 2.5kHz. Cells were held at a voltage of -80mV. Currents were evoked to a voltage step for 1000ms in duration at 0mV every 5s. Currents were analysed using Pulsefit software (v8.54, HEKA, Germany), with the total charge measured during the whole of the voltage step. All other plots were produced using Igor Pro (WaveMetrics).

Row | Structure (SMILES) | IC50 (human Kv1.5) [µM] | inhibition at 1 µM (hKv1.5) [%]
1 | Clc1ccc(-c2csc3ncnc(NCc4ccccn4)c23)cc1 [Example 325, [5-(4-Chlorophenyl)-thieno[2,3-d]pyrimidin-4-yl]-pyridin-2-ylmethyl-amine] | 2.54 | 90.8
2 | C=CCNc1ncnc2scc(-c3cccs3)c12 [Example 99, Allyl-(5-thiophen-2-yl-thieno[2,3-d]pyrimidin-4-yl)-amine] | 7.53 | 17.5
3 | c1ccc(CCNc2ncnc3scc(-c4cccs4)c23)cc1 [Example 163, Phenethyl-(5-thiophen-2-yl-thieno[2,3-d]pyrimidin-4-yl)-amine] | 14.3 | 70.8
4 | CN(C)CCOc1nc(NCc2ccccn2)c2c(-c3ccccc3)csc2n1 [Example 211, [2-(2-Dimethylamino-ethoxy)-5-phenyl-thieno[2,3-d]pyrimidin-4-yl]-pyridin-2-ylmethyl-amine] | 5.37 | 89
5 | c1ccc(CNc2ncnc3scc(C4CCCCC4)c23)nc1 [Example 146, (5-Cyclohexyl-thieno[2,3-d]pyrimidin-4-yl)-pyridin-2-ylmethyl-amine] | 1.68 | 81
6 | Cc1ccc(-c2csc3ncnc(NCCc4ccc5c(c4)OCCO5)c23)cc1C [Example 132, [2-(2,3-Dihydro-benzo[1,4]dioxin-6-yl)-ethyl]-[5-(3,4-dimethyl-phenyl)-thieno[2,3-d]pyrimidin-4-yl]-amine] | 4.58 | 92
7 | CN(Cc1ccco1)c1ncnc2scc(-c3ccccc3)c12 [Example 88, Furan-2-ylmethyl-methyl-(5-phenyl-thieno[2,3-d]pyrimidin-4-yl)-amine] | 6.82 | 26.4
8 | Cc1ccc(-c2csc3ncnc(Oc4ccc5ccccc5c4)c23)cc1 [Example 129, 4-(Naphthalen-2-yloxy)-5-p-tolyl-thieno[2,3-d]pyrimidine] | > 30 | 47.4
9 | Clc1ccc(-c2csc3ncnc(NCCc4ccccc4)c23)cc1 [Example 136, [5-(4-Chloro-phenyl)-thieno[2,3-d]pyrimidin-4-yl]-phenethyl-amine] | 16.8 | 27.2
10 | c1ccc(CNc2ncnc3scc(-c4ccc(N5CCOCC5)cc4)c23)nc1 [Example 332, [5-(4-Morpholin-4-yl-phenyl)-thieno[2,3-d]pyrimidin-4-yl]-pyridin-2-ylmethyl-amine] | 47.4 | 73
11 | Fc1ccc(-c2csc3nc(N4CCOCC4)nc(NCc4ccccn4)c23)cc1 [Example 207, [5-(4-Fluorophenyl)-2-morpholin-4-yl-thieno[2,3-d]pyrimidin-4-yl]-pyridin-2-ylmethyl-amine] | 42.5 | 97.2
12 | Nc1nc(NCc2ccccn2)c2c(-c3ccc(F)cc3)csc2n1 [Example 205, 5-(4-Fluorophenyl)-N^4-pyridin-2-ylmethyl-thieno[2,3-d]pyrimidine-2,4-diamine] | 11.9 | 97.5
13 | CN(C)C(=O)CNc1ncnc2scc(-c3ccccc3)c12 [Example 103, N,N-Dimethyl-2-(5-phenyl-thieno[2,3-d]pyrimidin-4-ylamino)-acetamide] | > 30 | 13.6
14 | COC(=O)C1CCN(c2nc(NCc3ccccn3)c3c(-c4ccc(F)cc4)csc3n2)CC1 [Example 201, 1-{5-(4-Fluorophenyl)-4-[(pyridin-2-ylmethyl)-amino]-thieno[2,3-d]pyrimidin-2-yl}-piperidine-4-carboxylic acid methyl ester] | 15.9 | 98.2
15 | COC(=O)c1ccc(Oc2ncnc3scc(-c4ccc(C)cc4)c23)cc1 [Example 131, 4-(5-p-Tolyl-thieno[2,3-d]pyrimidin-4-yloxy)-benzoic acid methyl ester] | > 30 | 29.8

Compounds with a lower IC50 (human Kv1.5), results first:

Row | IC50 (human Kv1.5) [µM] | inhibition at 1 µM (hKv1.5) [%] | Structure (SMILES)
16 | 0.01 | 97.3 | c1ccc(CNc2ncnc3scc(-c4ccc5c(c4)OCO5)c23)nc1 [Example 314, (5-Benzo[1,3]dioxol-5-yl-thieno[2,3-d]pyrimidin-4-yl)-pyridin-2-ylmethyl-amine]
17 | 0.93 | 84.8 | Clc1ccc(-c2csc3ncnc(NCc4ccco4)c23)cc1 [Example 135, [5-(4-Chloro-phenyl)-thieno[2,3-d]pyrimidin-4-yl]-furan-2-ylmethyl-amine]
18 | 0.47 | 91.8 | COc1nc(NCc2ccccn2)c2c(-c3ccccc3)csc2n1 [Example 191, (2-Methoxy-5-phenyl-thieno[2,3-d]pyrimidin-4-yl)-pyridin-2-ylmethyl-amine]
19 | 0.8 | 52.3 | c1ccc(-c2csc3ncnc(OCc4ccco4)c23)cc1 [Example 109, 4-(Furan-2-ylmethoxy)-5-phenyl-thieno[2,3-d]pyrimidine]
20 | 1.05 | 25.3 | c1ccc(-c2csc3ncnc(NCc4ccoc4)c23)cc1 [Example 107, Furan-3-ylmethyl-(5-phenyl-thieno[2,3-d]pyrimidin-4-yl)-amine]
21 | 1.28 | 49.7 | Cc1ccccc1-c1csc2ncnc(NCc3ccccn3)c12 [Example 142, Pyridin-2-ylmethyl-(5-o-tolyl-thieno[2,3-d]pyrimidin-4-yl)-amine]
22 | 0.33 | 21.9 | c1ccc(-c2csc3ncnc(OCc4ccccn4)c23)cc1 [Example 106, 5-Phenyl-4-(pyridin-2-ylmethoxy)-thieno[2,3-d]pyrimidine]
23 | 1.32 | 81 | CC(C)(C)c1ccc(-c2csc3ncnc(NCc4ccccn4)c23)cc1 [Example 144, [5-(4-tert-Butyl-phenyl)-thieno[2,3-d]pyrimidin-4-yl]-pyridin-2-ylmethyl-amine]
24 | 1.6 | 91 | Brc1sc2ncnc(NCc3ccco3)c2c1-c1ccccc1 [Example 165, (6-Bromo-5-phenyl-thieno[2,3-d]pyrimidin-4-yl)-furan-2-ylmethyl-amine]
